Experiment [1] is described as follows: microbe, parasite or virus in culture. It counts as functional. To be noted: Mycobacterium tuberculosis.
Experiment [2] has as its target Serine/threonine-protein phosphatase PP1-alpha catalytic subunit (Homo sapiens, UniProt P62136). The experiment can be described thus: PP1 phosphatase inhibitors, dose response, biochemical, fluorescence (AID 2394).
Experiment [3] can be described thus: ARNT/TACC3 interaction disruptors, potency, confirmation, biochemical, AlphaScreen, cherry-picked samples (AID 651703).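 Also: His-tagged ARNT PAS-B domain paired with GST-TACC3 E629A dimer coactivator fragment; potency of inhibitors that break up the complex and lower AlphaScreen signal.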 Format: functional, Homo sapiens. (Bead proximity is the source of the signal in Alpha formats.)
The target in experiment [4] is T1, Heat shock factor protein 1 (Mus musculus, UniProt P38532).
T1 sequence (P38532 whole entry): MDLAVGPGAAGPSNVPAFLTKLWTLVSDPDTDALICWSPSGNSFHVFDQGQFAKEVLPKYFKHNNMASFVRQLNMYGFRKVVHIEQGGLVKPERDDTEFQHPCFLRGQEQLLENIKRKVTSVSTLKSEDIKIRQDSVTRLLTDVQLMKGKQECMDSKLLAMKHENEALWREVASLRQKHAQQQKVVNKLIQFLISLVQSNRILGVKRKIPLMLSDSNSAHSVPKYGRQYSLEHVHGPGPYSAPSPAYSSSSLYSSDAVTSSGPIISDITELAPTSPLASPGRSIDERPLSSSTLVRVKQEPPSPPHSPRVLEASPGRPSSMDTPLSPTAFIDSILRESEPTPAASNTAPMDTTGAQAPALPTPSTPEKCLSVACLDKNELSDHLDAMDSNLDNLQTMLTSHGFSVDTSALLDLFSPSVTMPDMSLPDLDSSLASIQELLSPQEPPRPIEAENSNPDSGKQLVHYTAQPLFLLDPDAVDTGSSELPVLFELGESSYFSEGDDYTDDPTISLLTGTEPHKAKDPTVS
The experiment can be described thus: HSF1 potentiators in luciferase reporter cells, confirmation, cell-based, NIH3T3, luminescence, dose retest (AID 435004).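 Also: stress induced by proteasome inhibitor MG132 added 30 min after compound; luciferase reporter driven by HSF1 response element in NIH3T3 cells; actives raise luminescence as potentiators of the MG132 stress response.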 It counts as functional. (In general: Reporter assays use an easily measured gene product as a stand-in for the process of interest.)

In experiment [5] the target is T2, Serine/threonine-protein phosphatase (Homo sapiens, UniProt Q9BPW0).
T2 sequence (Q9BPW0 whole entry): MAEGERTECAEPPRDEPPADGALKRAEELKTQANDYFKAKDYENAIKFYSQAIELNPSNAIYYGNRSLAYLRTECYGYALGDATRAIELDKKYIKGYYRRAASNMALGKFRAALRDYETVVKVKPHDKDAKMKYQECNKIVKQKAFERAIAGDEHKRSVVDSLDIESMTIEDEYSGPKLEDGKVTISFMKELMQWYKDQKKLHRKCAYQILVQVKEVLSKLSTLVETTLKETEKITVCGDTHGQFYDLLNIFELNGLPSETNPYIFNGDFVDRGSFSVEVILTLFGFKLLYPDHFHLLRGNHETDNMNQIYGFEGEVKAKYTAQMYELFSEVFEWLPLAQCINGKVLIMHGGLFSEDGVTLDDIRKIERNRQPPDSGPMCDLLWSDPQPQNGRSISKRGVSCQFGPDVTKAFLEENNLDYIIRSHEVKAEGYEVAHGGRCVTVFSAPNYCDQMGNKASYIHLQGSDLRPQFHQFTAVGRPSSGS
The experiment can be described thus: PP5 phosphatase inhibitors, dose response, biochemical, fluorescence (AID 2395).

A further experiment concerns the target Genome polyprotein (Hepatitis C virus, UniProt Q2Q167). The experiment can be described thus: HCV core protein dimerization inhibitors, dose response, biochemical, TR-FRET (AID 2159).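 Also: blocks dimerization of HCV core protein measured by TR-FRET between tagged core106 pairs.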 Further details: species or system Hepacivirus hominis.
Experiment [6] has as its target Peroxisome proliferator-activated receptor gamma/Nuclear receptor coactivator 2 (Homo sapiens, UniProt P37231). The experiment can be described thus: TR-FRET dose response biochemical High Throughput Screening assay for agonists of the steroid receptor coactivator 2 (SRC-2) recruitment by the peroxisome proliferator-activated receptor gamma (PPAR gamma): non-selective agonists. [Related pubchem assays: 1297, 1032 ]. It counts as functional. For orientation: TR-FRET usually uses a lanthanide donor and a delayed reading to cut background.

In experiment [7] the target is Peroxisome proliferator-activated receptor gamma/Nuclear receptor coactivator 1 (Homo sapiens, UniProt P37231). The experiment can be described thus: TR-FRET dose response biochemical High Throughput Screening assay for agonists of the steroid receptor coactivator 1 (SRC-1) recruitment by the peroxisome proliferator-activated receptor gamma (PPAR gamma): non-selective agonists. [Related pubchem assays (depositor defined):AID1300, AID1808, AID504735, AID631]. It counts as protein assay.
Sequence of Peroxisome proliferator-activated receptor gamma/Nuclear receptor coactivator 1 (P37231 whole entry): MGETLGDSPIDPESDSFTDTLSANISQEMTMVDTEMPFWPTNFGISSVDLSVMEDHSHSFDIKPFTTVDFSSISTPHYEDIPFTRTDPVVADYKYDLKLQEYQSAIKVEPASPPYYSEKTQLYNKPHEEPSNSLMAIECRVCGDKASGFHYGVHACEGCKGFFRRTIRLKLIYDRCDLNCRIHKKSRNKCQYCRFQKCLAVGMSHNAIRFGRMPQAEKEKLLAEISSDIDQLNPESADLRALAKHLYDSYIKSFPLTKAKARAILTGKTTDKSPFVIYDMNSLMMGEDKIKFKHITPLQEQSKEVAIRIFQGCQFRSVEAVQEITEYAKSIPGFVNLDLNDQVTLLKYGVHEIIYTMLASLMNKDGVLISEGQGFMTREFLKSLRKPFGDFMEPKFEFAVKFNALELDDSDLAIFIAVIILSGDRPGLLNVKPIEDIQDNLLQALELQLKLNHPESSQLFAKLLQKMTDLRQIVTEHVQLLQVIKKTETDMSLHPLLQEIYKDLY
Sequence of Peroxisome proliferator-activated receptor gamma/Nuclear receptor coactivator 1 (Q15788 whole entry, further chain): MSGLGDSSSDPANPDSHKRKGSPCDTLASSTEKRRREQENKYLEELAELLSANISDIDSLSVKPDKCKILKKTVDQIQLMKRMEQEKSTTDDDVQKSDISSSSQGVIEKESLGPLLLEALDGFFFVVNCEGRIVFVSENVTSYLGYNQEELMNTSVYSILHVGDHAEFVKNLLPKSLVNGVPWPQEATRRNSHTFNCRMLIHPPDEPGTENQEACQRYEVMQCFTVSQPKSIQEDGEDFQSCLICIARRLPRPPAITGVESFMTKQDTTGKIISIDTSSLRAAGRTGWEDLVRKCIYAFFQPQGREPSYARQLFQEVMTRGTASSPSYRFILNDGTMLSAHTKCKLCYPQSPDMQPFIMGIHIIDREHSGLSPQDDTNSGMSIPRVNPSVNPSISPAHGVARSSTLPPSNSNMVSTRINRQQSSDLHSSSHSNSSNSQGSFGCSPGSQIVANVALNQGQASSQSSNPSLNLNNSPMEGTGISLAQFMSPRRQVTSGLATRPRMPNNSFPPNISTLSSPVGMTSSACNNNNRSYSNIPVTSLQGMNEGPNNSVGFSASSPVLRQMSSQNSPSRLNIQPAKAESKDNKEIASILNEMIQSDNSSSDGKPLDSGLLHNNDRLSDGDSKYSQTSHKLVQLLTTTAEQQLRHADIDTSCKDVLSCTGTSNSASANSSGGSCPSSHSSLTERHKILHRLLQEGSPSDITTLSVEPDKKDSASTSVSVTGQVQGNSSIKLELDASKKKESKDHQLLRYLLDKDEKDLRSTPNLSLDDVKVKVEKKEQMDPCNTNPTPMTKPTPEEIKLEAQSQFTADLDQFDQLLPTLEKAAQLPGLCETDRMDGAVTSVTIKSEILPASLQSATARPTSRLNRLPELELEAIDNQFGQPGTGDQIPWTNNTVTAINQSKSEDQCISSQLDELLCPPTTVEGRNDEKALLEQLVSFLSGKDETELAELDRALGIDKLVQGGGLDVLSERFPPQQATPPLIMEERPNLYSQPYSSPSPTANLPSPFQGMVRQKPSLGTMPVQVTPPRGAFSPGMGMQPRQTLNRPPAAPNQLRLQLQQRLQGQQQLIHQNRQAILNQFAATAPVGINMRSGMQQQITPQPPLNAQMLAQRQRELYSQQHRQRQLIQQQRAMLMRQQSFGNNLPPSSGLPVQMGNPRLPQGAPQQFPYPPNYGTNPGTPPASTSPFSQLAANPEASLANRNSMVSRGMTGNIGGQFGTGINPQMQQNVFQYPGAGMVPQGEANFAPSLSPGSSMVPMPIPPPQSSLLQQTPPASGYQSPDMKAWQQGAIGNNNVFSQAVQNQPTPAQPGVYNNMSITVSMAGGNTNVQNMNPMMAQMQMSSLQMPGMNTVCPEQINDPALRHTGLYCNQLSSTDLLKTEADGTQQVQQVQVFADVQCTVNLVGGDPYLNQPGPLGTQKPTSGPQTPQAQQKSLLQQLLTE

The next experiment concerns the target T3, Estrogen receptor (Homo sapiens, UniProt P03372).
T3 sequence (P03372 whole entry): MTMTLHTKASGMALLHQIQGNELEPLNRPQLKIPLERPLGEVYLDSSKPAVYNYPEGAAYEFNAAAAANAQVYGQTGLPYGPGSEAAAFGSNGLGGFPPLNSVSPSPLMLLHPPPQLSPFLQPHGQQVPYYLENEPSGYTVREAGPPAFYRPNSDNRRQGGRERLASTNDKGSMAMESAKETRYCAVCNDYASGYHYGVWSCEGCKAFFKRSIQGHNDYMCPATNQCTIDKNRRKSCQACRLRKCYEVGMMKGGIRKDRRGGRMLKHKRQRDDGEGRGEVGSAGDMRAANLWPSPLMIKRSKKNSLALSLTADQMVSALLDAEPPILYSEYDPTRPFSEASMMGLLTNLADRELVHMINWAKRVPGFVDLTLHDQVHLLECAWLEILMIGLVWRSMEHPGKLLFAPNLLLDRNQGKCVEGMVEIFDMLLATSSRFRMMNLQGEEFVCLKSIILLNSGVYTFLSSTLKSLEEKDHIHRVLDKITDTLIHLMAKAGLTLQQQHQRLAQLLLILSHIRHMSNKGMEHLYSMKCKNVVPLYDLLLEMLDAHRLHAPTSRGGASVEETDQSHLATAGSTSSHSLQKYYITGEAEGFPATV

The target of experiment [8] is Peroxisome proliferator-activated receptor gamma/Nuclear receptor coactivator 3 (Homo sapiens, UniProt P37231). The experiment can be described thus: TR-FRET dose response biochemical High Throughput Screening assay for agonists of the steroid receptor coactivator 3 (SRC-3) recruitment by the peroxisome proliferator-activated receptor gamma (PPAR gamma): non-selective agonists. [Related pubchem assays: 1301 (Confirmation screen.), 1048 (Primary screen.)]. Format: functional.

In a further experiment the target is NADPH oxidase 1 (Homo sapiens, UniProt Q9Y5S8). It counts as functional, cell-based.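 Also: Cell-based assay with luminescence read-out, IC50 derived from inhibitor dose-response curves; intracellular ROS from endogenous NOX1 in intact HT29 colon cancer cells; potency of inhibitors that lower the ROS luminescence signal.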
The next experiment deals with Estrogen receptor beta (Homo sapiens, UniProt Q92731).
Sequence of Estrogen receptor beta (Q92731 whole entry): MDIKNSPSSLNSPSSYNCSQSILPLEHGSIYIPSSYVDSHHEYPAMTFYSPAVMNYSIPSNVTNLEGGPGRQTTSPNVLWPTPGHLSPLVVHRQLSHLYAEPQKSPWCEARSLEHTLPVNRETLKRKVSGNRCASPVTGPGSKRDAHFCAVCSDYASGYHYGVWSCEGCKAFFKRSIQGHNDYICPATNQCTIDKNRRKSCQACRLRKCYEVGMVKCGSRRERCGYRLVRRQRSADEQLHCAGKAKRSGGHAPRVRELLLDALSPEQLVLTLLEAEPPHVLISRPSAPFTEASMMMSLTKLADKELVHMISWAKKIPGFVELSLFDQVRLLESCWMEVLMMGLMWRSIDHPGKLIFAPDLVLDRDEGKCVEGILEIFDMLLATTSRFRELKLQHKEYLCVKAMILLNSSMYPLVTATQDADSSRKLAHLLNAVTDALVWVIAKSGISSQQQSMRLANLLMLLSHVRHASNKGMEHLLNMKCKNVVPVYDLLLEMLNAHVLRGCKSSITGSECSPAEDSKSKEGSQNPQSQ

SMILES strings stand for the structures. The source made the active and inactive calls.

Sequence of Serine/threonine-protein phosphatase PP1-alpha catalytic subunit (P62136 whole entry, the tested form may be a part): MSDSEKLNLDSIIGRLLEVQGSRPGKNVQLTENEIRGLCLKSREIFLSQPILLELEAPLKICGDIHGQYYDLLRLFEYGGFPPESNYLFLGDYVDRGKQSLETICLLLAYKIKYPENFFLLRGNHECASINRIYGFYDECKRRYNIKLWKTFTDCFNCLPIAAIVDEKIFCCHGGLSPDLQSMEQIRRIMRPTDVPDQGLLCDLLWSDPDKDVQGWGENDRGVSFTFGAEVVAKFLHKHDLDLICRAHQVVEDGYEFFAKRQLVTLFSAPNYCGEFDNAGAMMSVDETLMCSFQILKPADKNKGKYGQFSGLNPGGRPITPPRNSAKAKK
Sequence of Peroxisome proliferator-activated receptor gamma/Nuclear receptor coactivator 2 (P37231 whole entry): as the sequence (P37231 whole entry) above
Sequence of Peroxisome proliferator-activated receptor gamma/Nuclear receptor coactivator 2 (Q15596 whole entry, further chain): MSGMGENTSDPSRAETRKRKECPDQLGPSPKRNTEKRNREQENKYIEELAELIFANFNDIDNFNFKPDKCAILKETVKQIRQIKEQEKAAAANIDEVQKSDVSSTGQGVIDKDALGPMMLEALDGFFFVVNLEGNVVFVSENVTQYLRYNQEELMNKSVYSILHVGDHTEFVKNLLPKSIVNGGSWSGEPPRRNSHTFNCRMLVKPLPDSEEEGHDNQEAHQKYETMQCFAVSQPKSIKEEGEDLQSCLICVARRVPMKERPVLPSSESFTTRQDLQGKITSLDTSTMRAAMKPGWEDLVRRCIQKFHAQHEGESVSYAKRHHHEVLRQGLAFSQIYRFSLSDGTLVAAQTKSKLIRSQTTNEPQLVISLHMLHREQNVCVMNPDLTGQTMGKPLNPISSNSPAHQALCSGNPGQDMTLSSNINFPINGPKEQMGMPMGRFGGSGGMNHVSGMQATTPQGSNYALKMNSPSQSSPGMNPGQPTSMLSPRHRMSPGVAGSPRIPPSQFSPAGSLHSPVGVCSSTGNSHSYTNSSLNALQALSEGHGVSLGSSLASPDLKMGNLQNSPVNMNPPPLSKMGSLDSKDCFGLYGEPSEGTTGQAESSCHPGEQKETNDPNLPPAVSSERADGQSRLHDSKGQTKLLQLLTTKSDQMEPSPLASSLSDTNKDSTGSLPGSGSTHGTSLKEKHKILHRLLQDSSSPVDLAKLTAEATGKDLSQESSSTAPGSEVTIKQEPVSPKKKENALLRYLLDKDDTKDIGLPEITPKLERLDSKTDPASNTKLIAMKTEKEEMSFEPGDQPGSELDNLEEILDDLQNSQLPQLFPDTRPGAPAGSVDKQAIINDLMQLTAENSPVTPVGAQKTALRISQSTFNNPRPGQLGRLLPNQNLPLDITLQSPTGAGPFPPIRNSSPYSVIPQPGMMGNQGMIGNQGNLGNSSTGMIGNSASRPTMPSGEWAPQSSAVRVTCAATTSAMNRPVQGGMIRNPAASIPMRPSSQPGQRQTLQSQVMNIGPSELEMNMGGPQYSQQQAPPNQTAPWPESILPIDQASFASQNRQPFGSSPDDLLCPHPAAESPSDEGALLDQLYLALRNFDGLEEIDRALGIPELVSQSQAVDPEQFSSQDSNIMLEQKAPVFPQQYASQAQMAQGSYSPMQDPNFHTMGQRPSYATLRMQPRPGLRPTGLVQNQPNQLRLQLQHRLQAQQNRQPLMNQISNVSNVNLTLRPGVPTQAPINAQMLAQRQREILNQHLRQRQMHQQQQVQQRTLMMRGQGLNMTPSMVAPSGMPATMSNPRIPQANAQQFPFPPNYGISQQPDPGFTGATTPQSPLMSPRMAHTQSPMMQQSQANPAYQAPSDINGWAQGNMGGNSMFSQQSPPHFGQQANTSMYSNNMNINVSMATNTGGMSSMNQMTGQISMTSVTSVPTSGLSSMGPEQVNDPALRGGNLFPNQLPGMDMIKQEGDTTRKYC
Sequence of Genome polyprotein (Q2Q167 whole entry): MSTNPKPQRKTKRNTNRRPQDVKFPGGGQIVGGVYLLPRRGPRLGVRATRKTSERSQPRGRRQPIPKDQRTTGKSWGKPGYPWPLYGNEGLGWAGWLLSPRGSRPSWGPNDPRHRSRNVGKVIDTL

Regarding `CCCCN(CC)c1nc(N)c2c(N)nc(OCC)cc2c1C#N`, the CC50 in experiment [1] was > 40 µM (active). Moreover, the half-inhibitory concentration (IC50) in experiment [2] is listed as > 67 µM (not active); in experiment [5], 15.2 µM (not active). The AC50 in experiment [3] was 92.8 µM (active). Besides, in [4], the EC50 is > 260 µM (inactive).
As for `Cc1cc(C(=O)OCC(=O)c2ccc(Br)s2)no1`, the IC50 was > 49.8 µM (not active) against Genome polyprotein and 36.2 µM (not active) at Estrogen receptor. Further, the values for the EC50 in experiment [6], in experiment [7] and in [8] were 3.89 µM (active), 137 µM (inactive) and > 79.4 µM (not active), respectively.
As to `CN(C)c1ccc(-c2nc(-c3ccccc3)c(-c3ccccc3)[nH]2)cc1`, the IC50 at NADPH oxidase 1 is 7.95 µM (active).
Turning to `CC(=N)/C(C#N)=C(/O)CSc1nnc(Nc2cccc(C)c2C)s1`, the half-maximal inhibitory concentration (IC50) at Estrogen receptor beta was 12.3 µM (active).

By IC50 is commonly meant the midpoint of a concentration-inhibition curve. For orientation: AC50 means the midpoint of the concentration-response curve, whichever way the signal moves. By EC50 is commonly meant the concentration at which the effect is half-maximal.
